Source: patent US20250134903A1, “COMPOSITIONS AND METHODS FOR TREATING PAIN” (priority 2023, published 2025)
Entries after “also recorded” stand apart in the source; their conditions may differ.

What was measured:
[1] = biological target: histamine H1-receptor (Homo sapiens, UniProt P35367); details: more potent; cited from earlier work
[2] = 5% lidocaine plaster applied to skin; cited from earlier work
[3] = biological target: mu-opioid receptors (Homo sapiens, UniProt P35372); details: cited from earlier work
[4] = system: classic TN; details: 100-400 mg/d; 8 patients with classic TN; cited from earlier work
[5] = cited from earlier work
[6] = system: patients suffering from trigeminal neuralgia (TN); assay: Non-randomized clinical observations of Trimeprazine in patients (n=7) with trigeminal neuralgia; assay type: in vivo, human; details: for overall efficacy on TN pain: seven TN patients, non-randomized
Text: A middle-aged patient suffers from classic trigeminal (Type 1) neuralgia presenting with sharp, lancinating, severe pain in their left face precipitated by showering, eating, facial animation, touch of their facial skin and nose, and brushing their teeth. The episodes of pain are initiated by the stimuli above and immediately stop all other activity until they subside in several seconds. Their behavior is modified to avoid the stimuli above, even affecting how they speak and eats. […] Their daily activities are dominated by fear of inducing another attack.
The patient began treatment with Trimeprazine 5 mg morning and evening.
The disease had caused cutaneous anesthesia in the right forehead and cheek. […] Beginning at about 19 years after the bout of Lyme disease they noted sharp lightning-like pains in their right cheek. Brief and usually during cutaneous stimulation, like being in a shower. There were perhaps one or two of these occurrences per year. At 22 years after the initial Lyme disease, they experienced a severe attack of Trigeminal Neuralgia (TN) affecting their right cheek (Type 1). There were on average 8 bouts of severe stabbing pain per day precipitated by facial animation, touching, opening their mouth to eat, brushing their teeth, and even a gust of cold wind. They treated themself with doxycycline, fearing a reactivation of Lyme disease.
They were quite miserable, being unable to even brush their teeth without precipitating a severe bout of pain.
Patient is a person who suffers from TN which began 3 years ago after a dental procedure. The TN was manifest by sharp, lancinating pain in the left side of their jaw (Type. 1). These periods of pain were episodic, precipitated by stimuli like brushing their teeth, at least once per day, with periods of vulnerability lasting 3-4 weeks each occurring 3-4 times per year. Their parent had suffered with the same pattern of TN. When started on Trimeprazine they were also taking Pregabalin.
Patient is a young person who developed severe ophthalmic herpes zoster involving the right side of their face and their right eye. They had extensive ocular involvement requiring medications for a full year. Their corneal difficulties were accompanied by a severe lingering neuralgia in the affected ophthalmic distribution of the trigeminal nerve (Type 2), which plagued their every waking hour. They were on 12 medications including carbamazepine 200 mg BID and pregabalin 150 mg TID, ophthalmic medications, and oxycodone as needed for pain relief.
This patient suffered from shingles on their forehead which was followed by lingering neuralgia in the affected ophthalmic distribution of the trigeminal nerve.

[7] = system: TN; details: 23 patients; add-on therapy; cited from earlier work
[8] = system: TN; details: 10 patients with TN; cited from earlier work
[9] = system: PHN; details: in vivo; cited from earlier work
[10] = system: PHN symptoms; details: human, in vivo; cited from earlier work
[11] = system: post-herpetic neuralgia (PHN) pain; assay: Applicant's clinical observations of Trimeprazine tartrate in post-herpetic neuralgia; assay type: in vivo, human; details: not a randomized clinical trial
Text: While the clinical observations are not from a randomized clinical trial and could be subject to placebo effects and other confounders, they offer a promising finding for this devastating facial pain condition.

[12] = Example 5, four months or so after

mu-opioid receptors, sequence (P35372 whole entry): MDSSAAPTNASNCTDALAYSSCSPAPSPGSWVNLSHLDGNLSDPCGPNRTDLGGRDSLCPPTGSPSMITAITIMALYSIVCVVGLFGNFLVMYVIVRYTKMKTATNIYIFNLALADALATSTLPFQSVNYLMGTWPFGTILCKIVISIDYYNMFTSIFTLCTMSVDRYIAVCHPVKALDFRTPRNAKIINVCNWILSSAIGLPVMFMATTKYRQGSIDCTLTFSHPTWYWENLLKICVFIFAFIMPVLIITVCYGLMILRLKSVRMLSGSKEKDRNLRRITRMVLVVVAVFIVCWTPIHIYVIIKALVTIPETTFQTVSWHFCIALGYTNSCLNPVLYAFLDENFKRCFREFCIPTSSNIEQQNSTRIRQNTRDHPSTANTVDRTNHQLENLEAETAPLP
histamine H1-receptor, sequence (P35367 whole entry, species assumed): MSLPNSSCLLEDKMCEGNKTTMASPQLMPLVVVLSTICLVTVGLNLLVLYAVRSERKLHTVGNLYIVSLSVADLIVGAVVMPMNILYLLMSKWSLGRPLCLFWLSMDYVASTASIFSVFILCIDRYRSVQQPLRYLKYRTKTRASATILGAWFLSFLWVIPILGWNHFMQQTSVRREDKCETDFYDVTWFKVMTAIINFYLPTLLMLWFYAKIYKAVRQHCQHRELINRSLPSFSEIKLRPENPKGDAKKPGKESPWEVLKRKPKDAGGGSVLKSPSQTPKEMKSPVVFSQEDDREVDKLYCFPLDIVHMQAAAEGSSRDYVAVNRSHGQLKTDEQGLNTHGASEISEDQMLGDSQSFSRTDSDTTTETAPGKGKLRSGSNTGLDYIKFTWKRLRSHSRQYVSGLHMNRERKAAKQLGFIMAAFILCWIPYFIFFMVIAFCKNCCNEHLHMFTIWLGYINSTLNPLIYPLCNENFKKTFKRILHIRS

## Cc1ccc(/C(=C\CN2CCCC2)c2ccccn2)cc1 [E-triprolidine]
[1]
  potency relative to Z-triprolidine: 1000 fold

## CCN(CC)CC(=O)Nc1c(C)cccc1C [Lidocaine]
[2]
  fraction of the drug reaching the systemic circulation: 3%

## CC[C@@H](c1cccc(O)c1)[C@@H](C)CN(C)C [Tapentadol]
[3]
  times less potent than morphine in binding mu-opioid receptors: 18 times

## CC1(C)O[C@@H]2[C@@H](CO[C@@]3(COS(N)(=O)=O)OC(C)(C)O[C@@H]23)O1 [Topiramate]
[4]
  patients in whom found effective: 75%

## CC(CN(C)C)CN1c2ccccc2Sc2ccccc21 (stereo not shown) [Trimeprazine]
[5]
  LogP: 4.71
[6]; Example 1, TN Type 1, 5 mg morning and evening, after four days of medication
  pain: all pain was gone
[6]; Example 1, middle-aged male, TN Type 1, 5 mg morning and evening, second day of the course
  intensity and frequency of the attacks: in decline
[6]; Example 1, 5 mg
  side-effects: no side-effects other than drowsiness
[6]; Example 1, ½ to 1 pill of 5 mg once or twice a day
  later discomfort in face: successfully alleviated
[6]; Example 2, person, TN Type 1, recurrences at seven and eleven months after the TN attack, 5 mg twice a day
  recurring sharp pains: immediately stop all recurring pains
[6]; Example 2, in the 12 months since the last treatment
  recurrent attacks of TN: no recurrent attacks of TN
[6]; Example 3, elderly male, TN Type 1 uncontrolled with carbamazepine and gabapentin, 5 mg twice a day, by ten days after starting treatment
  pain: essentially pain free
[6]; Example 3, 5 mg twice a day
  duration of relief: enduring
  tolerability: except for some drowsiness, tolerated the medicine well
[6]; Example 4, person, TN Type 1, also taking Pregabalin, after a first course of 10 days, 5 mg BID
  jaw pain: jaw pain was gone
[6]; Example 4, second course 5 mg BID for several days
  sensitive area on the side of head above ear: disappeared entirely
[6]; Example 5, young person, TN Type 2 after ophthalmic herpes zoster, by 5 days after starting the medication
  improvement of neuralgia: some improvement
[6]; [12]
  average pain (patient-reported): 2
  max pain (patient-reported): 5
[6]; Example 6, TN Type 2 after shingles, 5 mg BID, by 6 days after starting
  patient-reported relief of head pain: it does help my head
[6]; Patient 1, TN Type 1
  Clinical Outcome: Relief, no additional
  Comment: Pain gone day 3
[6]; Patient 2, TN Type 1
  Clinical Outcome: Relief, no additional
  Comment: 3 subsequent attacks
[6]; Patient 3, TN Type 1
  Clinical Outcome: Relief, no additional
  Comment: “So nice to be pain
[6]; Patient 4, TN Type 1
  Clinical Outcome: Relief, no additional
  Comment: Facial pain gone
[6]; Patient 5, TN Type 2
  Comment: Better and continuing
[6]; Patient 6, TN Type 2
  Clinical Outcome: Better, can travel
[6]; Patient 7, TN Type 2
  Clinical Outcome: Better, no additional
  Comment: “No bother now”
[6]
  overall efficacy on TN pain: demonstrated efficacy; also recorded: significant pain relief
[6]; listed as trimeprazine
  overall efficacy on TN pain: reduced or relieved
[6]; subset of TN patients treated with Trimeprazine
  patients with long-term pain relief, no recurrence of symptoms for over 12 months: two out of seven

## CC[C@@H](C(N)=O)N1CCCC1=O [levetiracetam]
[7]
  reduction in number of daily attacks: 62%
[8]
  improvement: 50-90%

## CC(C)C[C@H](CN)CC(=O)O [pregabalin]
[9]
  analgesic property relative to gabapentin: 6 times

## Botulinum Toxin A [BTX-A]
[10]
  cases in which effective in reducing pain: 31%
  cases with significant outcomes: 46.6%
  side effects: mild

## Trimeprazine tartrate
[6]
  overall efficacy on TN pain: effectiveness in alleviating pain
[11]
  effectiveness on PHN pain: effectiveness in alleviating pain
